In assay [1] the target is Glutamate receptor ionotropic, AMPA (Rattus norvegicus, UniProt P19490+P19491+P19492+P19493). The experiment in a line: Tested for in vitro binding affinity against AMPA receptor using [3H]-AMPA binding assay. It counts as protein-complex assay.
For assay [2], the target named is Glutamate NMDA receptor. The experiment in a line: Inhibition of [3H]MDL-105,519 binding to NMDA receptor glycine-binding site. It counts as protein-complex assay, Rattus norvegicus.
Assay [3] addresses Glutamate NMDA receptor (Rattus norvegicus) (UniProt P35439+Q00959+Q00960+Q00961+Q62645+Q8VHN2+Q9R1M7). As to the kind of experiment: Inhibition of [3H]MDL-105519 binding to NMDA receptor glycine binding site. It counts as protein-complex assay. On the set-up: concentration or dose not given beside the values. The conditions noted are these: concentration not given here.
Assay [4] deals with T1, Glutamate receptor ionotropic, AMPA (Rattus norvegicus) (UniProt P19491+P19492+P19493+P19490). The experiment in a line: Tested for in vitro binding affinity against AMPA receptor using [3H]-AMPA binding assay at a concentration of 1 uM. The assay is classed as protein-complex assay.
The target of assay [5] is T1, Glutamate receptor ionotropic, AMPA (Rattus norvegicus). The experiment in a line: Tested for in vitro binding affinity against AMPA receptor using [3H]AMPA binding assay. The assay is classed as protein-complex assay.

A word on the IC50: it is the concentration that inhibits the measured activity by half. Usually inhibition stands for how much of the control response was suppressed.

For `O=C(O)Cc1csc(NCc2cc(Br)cc3nc(O)c(O)nc23)n1`, the IC50 in assay [1] was 1450 nM; in assay [2], 120 nM.

With `O=[N+]([O-])c1cc(CNc2cccnc2)c2nc(O)c(O)nc2c1`, the IC50 in assay [1] was 970 nM. Further, in assay [3], the inhibition was determined as 12%.

As to `O=[N+]([O-])c1cc(CNc2cccc(F)c2)c2nc(O)c(O)nc2c1`, the IC50 came out at 1400 nM in assay [1] and 720 nM in assay [2].

Regarding `O=C(O)[C@@H]1CCCC[C@@H]1NCc1cc([N+](=O)[O-])cc2nc(O)c(O)nc12`, the IC50 in assay [1] turned out to be 670 nM. This compound showed an inhibition in assay [3] of 25%.

`O=C(O)C1CCCC(NCc2cc([N+](=O)[O-])cc3nc(O)c(O)nc23)C1` (stereo unspecified): in assay [1], the IC50 was 780 nM. Besides, the inhibition in assay [3] was 21%.

The compound `CCOC(=O)Cc1csc(NCc2cc(Br)cc3nc(O)c(O)nc23)n1` had an IC50 in assay [2] of 340 nM. Moreover, in assay [4], the inhibition turned out to be 17%.

On to `CCOC(=O)Cc1csc(NCc2cc([N+](=O)[O-])cc3nc(O)c(O)nc23)n1`, for which the IC50 in assay [1] is 1800 nM; in assay [2], 410 nM.

With `COC(=O)c1ccccc1NCc1cc(Cl)cc2nc(O)c(O)nc12`, the figures for the inhibition in assay [4] and in assay [3] were 0% and 25%, respectively.

On to `O=[N+]([O-])c1cc(CNc2ccccn2)c2nc(O)c(O)nc2c1`, for which, in assay [1], the IC50 amounted to 500 nM. The compound also displayed an inhibition in assay [3] of 0%.

In assay [1], `COC(=O)C1CCCC(NCc2cc([N+](=O)[O-])cc3nc(O)c(O)nc23)C1` (stereo unspecified) came in with a 50% inhibitory concentration (IC50) of 1300 nM. Moreover, in assay [3], the inhibition was determined as 30%.

As to `O=[N+]([O-])c1cc(CNc2ccccc2)c2nc(O)c(O)nc2c1`, the figures for the IC50 in assay [1] and in assay [2] were 1500 nM and 1400 nM, respectively.

Compound `NC(=O)[C@@H]1CCCC[C@@H]1NCc1cc([N+](=O)[O-])cc2nc(O)c(O)nc12` yielded an IC50 in assay [1] of 650 nM. The compound also gave an inhibition in assay [3] of 25%.

As to `O=[N+]([O-])c1cc(CNc2ccc(F)cc2)c2nc(O)c(O)nc2c1`, the results for the IC50 in assay [1] and in assay [2] were 1200 nM and 750 nM, respectively.

With `O=C(O)c1ccccc1NCc1cc(Cl)cc2nc(O)c(O)nc12`, the IC50 is 2000 nM in assay [1] and 30 nM in assay [2].

In assay [1], `O=[N+]([O-])c1cc(CNCc2ccccn2)c2nc(O)c(O)nc2c1` gave a 50% inhibitory concentration (IC50) of 3100 nM. In assay [3], this compound returned an inhibition of 40%.

As to `O=C(O)Cc1csc(NCc2cc([N+](=O)[O-])cc3nc(O)c(O)nc23)n1`, the IC50 in assay [1] was 180 nM; in assay [2], 120 nM.

Take `O=[N+]([O-])c1cc(CNc2ncccn2)c2nc(O)c(O)nc2c1`: the IC50 in assay [1] came to 380 nM. This compound also came in with an inhibition in assay [3] of 12%.

For `O=C(O)c1ccc(NCc2cc([N+](=O)[O-])cc3nc(O)c(O)nc23)cc1`, the IC50 in assay [1] came out at 1600 nM. The compound also had an inhibition in assay [3] of 10%.

`O=C(O)c1cccc(NCc2cc([N+](=O)[O-])cc3nc(O)c(O)nc23)c1` came in with an IC50 in assay [1] of 900 nM. The compound further showed an inhibition in assay [3] of 0%.

`O=[N+]([O-])c1cc(CNCc2ccncc2)c2nc(O)c(O)nc2c1` gave an IC50 in assay [1] of 1400 nM. This compound came in with an inhibition in assay [3] of 36%.

In the case of `O=[N+]([O-])c1cc(CNc2ccccc2F)c2nc(O)c(O)nc2c1`, the results for the IC50 in assay [1] and in assay [2] were 1400 nM and 500 nM, respectively.

Consider `O=[N+]([O-])c1cc(CN2CCC(O)C2)c2nc(O)c(O)nc2c1` (stereo unspecified), for which the Activity in assay [5] is 330 nM.

Regarding `O=C(O)c1ccccc1NCc1cc([N+](=O)[O-])cc2nc(O)c(O)nc12`, the concentration for half-maximal inhibition (IC50) in assay [1] and in assay [2] was 50 nM throughout.

In assay [1], `O=[N+]([O-])c1cc(CNc2nccs2)c2nc(O)c(O)nc2c1` registered an IC50 of 190 nM. Further, the inhibition in assay [3] turned out to be 41%.

As to `Oc1nc2cc(Br)cc(CNCc3ccccn3)c2nc1O`, the IC50 in assay [1] was 12000 nM. The compound also registered an inhibition in assay [3] of 40%.

The compound `O=[N+]([O-])c1cc(CNc2cnccn2)c2nc(O)c(O)nc2c1` came in with an IC50 in assay [1] of 220 nM. Besides, the inhibition in assay [3] was determined as 59%.
